We go through 46 molecules from paper PMC5681660, “Reduced hepatitis B and D viral entry using clinically applied drugs as novel inhibitors of the bile acid transporter NTCP” (Scientific Reports, 2017).

Molecules are shown by their SMILES. Structures can show the parent of a compound that is named as a salt.

In the assay the target is T1, human NTCP (Homo sapiens, UniProt Q14973).
T1 sequence (Q14973 1-349): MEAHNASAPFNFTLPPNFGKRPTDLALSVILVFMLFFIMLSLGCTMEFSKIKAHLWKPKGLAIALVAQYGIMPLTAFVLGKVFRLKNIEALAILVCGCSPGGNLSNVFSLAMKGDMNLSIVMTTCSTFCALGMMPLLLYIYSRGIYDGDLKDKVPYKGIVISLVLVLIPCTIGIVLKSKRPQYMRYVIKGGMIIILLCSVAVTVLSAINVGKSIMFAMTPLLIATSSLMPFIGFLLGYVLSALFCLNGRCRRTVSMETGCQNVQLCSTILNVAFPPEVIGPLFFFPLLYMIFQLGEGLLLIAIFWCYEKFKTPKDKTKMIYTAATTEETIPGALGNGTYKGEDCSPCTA
Put plainly: Screening taurocholate uptake assay (96-well, [14C]taurocholate, 10 µM drug). The note with it: for B-score functional assay: screening taurocholate uptake, 10 µM drug; for position among the hits of the screen (combined ranking of both screening assays): 1280 drugs at 10 µM, TC uptake and Myrcludex B binding screens combined.

Setting [1] is: ranking over the functional and the binding screening assay.
Where [2] appears, read: combined ranking of functional and binding screening assays.

For the molecule `CC1=C(/C=C/C(C)=C/C=C/C(C)=C/C(=O)O)C(C)(C)CCC1` [Retinoic acid], the B-score functional assay is reported as -0.152. The same molecule gave a Ranking score under setting [1] of 197.388.

As for `C=C1C(=O)O[C@H]2[C@H]1CC/C(C)=C/CC[C@@]1(C)O[C@@H]21` [Parthenolide], the B-score functional assay was found to be 2.985. Also, the Ranking score under setting [2] is reported as 607.546.

For the molecule `Cc1cc(C(C#N)c2ccc(Cl)cc2)c(Cl)cc1NC(=O)c1cc(I)cc(I)c1O` (centres unmarked) [Closantel], the B-score functional assay is given as -0.508. The molecule further registered a Ranking score under setting [1] of 203.568.

Take `Oc1ccc(OCc2ccccc2)cc1` [Monobenzone]: the B-score functional assay was -0.057. Besides, the Ranking score under setting [2] stood at 560.227.

As to `COc1ccc(CCN)cc1OC` [Homoveratrylamine], the B-score functional assay stood at 0.521. Further, the Ranking score under setting [2] was found to be 500.783.

For `CCOC(=O)n1ccn(C)c1=S` [Carbimazole], the B-score functional assay is -0.455. Besides, the Ranking score under setting [1] is given as 161.053.

Molecule `COC1=C(OC)C(=O)C(CCCCCCCCCCO)=C(C)C1=O` [Idebenone] showed a B-score functional assay of 0.176. Besides, the Ranking score under setting [2] was determined as 488.87.

Turning to `COc1cc(C(=O)NCc2ccc(OCCN(C)C)cc2)cc(OC)c1OC` [Trimethobenzamide hydrochloride], under setting [2], the Ranking score is listed as 1250.5. Besides, the B-score functional assay (B-score) was 2.997.

With `CCc1nc(N)nc(N)c1-c1ccc(Cl)cc1` [Pyrimethamine], the Ranking score under setting [2] worked out at 1154.81. Where the note is “B-score”, this molecule gave a B-score functional assay of 2.36.

For `CC(C)[C@H](N)C(=O)OCCOCn1cnc2c(=O)[nH]c(N)nc21` [Valacyclovir hydrochloride], the B-score functional assay is recorded as 0.32. Also, the Ranking score under setting [2] was 518.986.

With `C[C@H](CCC(=O)O)[C@H]1CC[C@H]2[C@@H]3[C@@H](O)C[C@@H]4C[C@H](O)CC[C@]4(C)[C@H]3CC[C@]12C` [ursodeoxycholic acid, reference compound], the “position among the hits of the screen (combined ranking of both screening assays)” value is listed as ≤ 150. For the same molecule, the “position among the hits of the screen (combined ranking of both screening assays)” value (listed as Ursodeoxycholic acid) is given as ≤ 100.

As for `COCC(=O)Nc1c(I)c(C(=O)NCC(O)CO)c(I)c(C(=O)N(C)CC(O)CO)c1I` (centres unmarked) [Iopromide], the B-score functional assay is -5.088. Further, the Ranking score under setting [1] was 153.642.

In the case of `C=CCN1CCCC1CNC(=O)c1cc2[nH]nnc2cc1OC.Cl` (centres unmarked) [Alizapride HCl], the B-score functional assay was 2.201. The Ranking score under setting [2] amounted to 642.464.

With `CC1(C)[C@@H](OC(=O)CCC(=O)O)CC[C@]2(C)[C@H]3C(=O)C=C4[C@@H]5C[C@@](C)(C(=O)O)CC[C@]5(C)CC[C@@]4(C)[C@]3(C)CC[C@@H]12` [Carbenoxolone disodium salt], the B-score functional assay is listed as -5.734. The same molecule gave a Ranking score under setting [1] of 79.4984.

In the case of `NS(=O)(=O)c1cc(C(=O)O)c(NCc2ccco2)cc1Cl` [Furosemide], under setting [2], the Ranking score came to 1165.28. This molecule had a B-score functional assay (B-score) of 1.457.

Regarding `CCCCC(CC)CNC(=N)NC(=N)NCCCCCCNC(=N)NC(=N)NCC(CC)CCCC` (centres unmarked) [Alexidine dihydrochloride], the B-score functional assay was -9.197. Moreover, the Ranking score under setting [1] is on record as 6.481.

On to `O=C(O)CCCc1ccc(N(CCCl)CCCl)cc1` [Chlorambucil], for which the B-score functional assay is listed as -1.869. The same molecule yielded a Ranking score under setting [1] of 169.183.

As for `CS(=O)(=O)O.O=C(O[C@H]1C[C@H]2CC3C[C@@H](C1)N2CC3=O)c1c[nH]c2ccccc12` [Dolasetron mesilate], the Ranking score under setting [2] is on record as 1169.41. The B-score functional assay (B-score) is recorded as 1.844.

As to `Cc1c(O)c(=O)n(-c2ccccc2)n1C` [Antipyrine, 4-hydroxy], the B-score functional assay is listed as -1.78. Further, under setting [1], the Ranking score is reported as 262.114.

In the case of `CCc1oc2ccccc2c1C(=O)c1cc(Br)c(O)c(Br)c1` [Benzbromarone], the B-score functional assay is -5.011. The Ranking score under setting [1] is on record as 148.825.

With `C[C@@H]1[C@H](O)[C@@H](C)/C=C/C=C/C=C/C=C/C=C/C=C/C=C/[C@H](O[C@@H]2O[C@H](C)[C@@H](O)[C@H](N)[C@@H]2O)C[C@@H]2O[C@](O)(C[C@@H](O)C[C@@H](O)[C@H](O)CC[C@@H](O)C[C@@H](O)CC(=O)O[C@H]1C)C[C@H](O)[C@H]2C(=O)O` [Amphotericin B], the B-score functional assay is on record as -7.097. Moreover, the Ranking score under setting [1] turned out to be 61.0819.

Consider `CO[C@@]1(NC(=O)C(C(=O)O)c2ccc(O)cc2)C(=O)N2C(C(=O)O)=C(CSc3nnnn3C)CO[C@@H]21` (some centres unmarked) [Moxalactam disodium salt], for which the B-score functional assay is -0.667. For the same molecule, under setting [2], the Ranking score was determined as 623.639.

Take `CC1CCc2c(N3CCC(O)CC3)c(F)cc3c(=O)c(C(=O)O)cn1c23` (centres unmarked) [Nadifloxacin]: the Ranking score under setting [2] is recorded as 1251.94. Under “B-score”, this molecule yielded a B-score functional assay of 3.94.

With `CN1CCCN=C1/C=C/c1cccs1.O=C(O)C(O)C(O)C(=O)O` [Pyrantel tartrate], the B-score functional assay is on record as -0.111. Further, the Ranking score under setting [2] was determined as 600.829.

Regarding `CNCC(O)c1ccc(OC(=O)C(C)(C)C)c(OC(=O)C(C)(C)C)c1` (centres unmarked) [Dipivefrin hydrochloride], the Ranking score under setting [2] is listed as 1200.98. The B-score functional assay (B-score) came to 1.926.

Consider `COC(c1ccccc1)(c1ccccc1)[C@H](Oc1nc(C)cc(C)n1)C(=O)O` [Ambrisentan], for which the B-score functional assay is recorded as -0.389. The Ranking score under setting [2] was found to be 629.311.

For the molecule `CN(C)c1nc(N(C)C)nc(N(C)C)n1` [Altretamine], the B-score functional assay is listed as -0.464. The Ranking score under setting [2] was found to be 605.153.

For `Oc1cc(Cl)ccc1Oc1ccc(Cl)cc1Cl` [Triclosan], the B-score functional assay was -1.77. The molecule further registered a Ranking score under setting [1] of 149.432.

For the molecule `CCCN(CCC)C(=O)C(CCC(=O)O)NC(=O)c1ccccc1` (centres unmarked) [Proglumide], the B-score functional assay turned out to be 0.098. Under setting [1], the Ranking score worked out at 231.221.

As for `CCCCNc1c(C(=O)OCC)c(C)nc2c1cnn2CC.Cl` [Tracazolate hydrochloride], the B-score functional assay is listed as -1.912. The molecule further registered a Ranking score under setting [1] of 238.155.

`CN(Cc1cnc2nc(N)nc(N)c2n1)c1ccc(C(=O)N[C@@H](CCC(=O)O)C(=O)O)cc1` (racemic) [Amethopterin (R,S)]: the B-score functional assay is on record as -0.795. The Ranking score under setting [2] is listed as 579.365.

For `CN1C[C@H](CNC(=O)OCc2ccccc2)C[C@@H]2c3cccc4c3c(cn4C)C[C@H]21` [Metergoline], the B-score functional assay is recorded as -0.571. This molecule also returned a Ranking score under setting [1] of 269.388.

For the molecule `Clc1ccc(COC(Cn2ccnc2)c2ccc(Cl)cc2Cl)c(Cl)c1` (centres unmarked) [Miconazole], the B-score functional assay is -2.763. This molecule showed a Ranking score under setting [1] of 240.998.

Regarding `CC(=O)Oc1cccc2c1C(=O)c1c(OC(C)=O)cc(C(=O)O)cc1C2=O` [Diacerein], the B-score functional assay was -4.175. The molecule also gave a Ranking score under setting [1] of 199.08.

Consider `CN(C(=O)C(Cl)Cl)c1ccc(OC(=O)c2ccco2)cc1` [Diloxanide furoate], for which, under setting [2], the Ranking score stood at 1159.98. The molecule also showed a B-score functional assay (B-score) of 1.688.

`N[C@@H](C(=O)N[C@@H]1C(=O)N2C(C(=O)O)=C(Cl)CC[C@H]12)c1ccccc1` [Loracarbef]: the B-score functional assay is recorded as -0.686. Under setting [2], the Ranking score amounted to 611.882.

With `O=c1[nH]c2ccccc2n1CCCN1CCC(n2c(=O)[nH]c3cc(Cl)ccc32)CC1` [Domperidone], the B-score functional assay is on record as -1.309. Further, the Ranking score under setting [2] worked out at 475.277.

`CCCCc1cc2ccccc2c(OCCN(C)C)n1` [Dimethisoquin hydrochloride]: the B-score functional assay is on record as -0.419. For the same molecule, under setting [1], the Ranking score was found to be 238.967.

In turn, `CC(C)(C)C(=O)OCOC(=O)[C@@H]1N2C(=O)[C@@H](NC(=O)[C@H](N)c3ccccc3)[C@H]2SC1(C)C` [Pivampicillin] displayed a B-score functional assay of 2.096. Further, under setting [1], the Ranking score is 199.66.

`Cc1cccn2c(=O)c(-c3nnn[nH]3)cnc12` [Pemirolast potassium] displayed a B-score functional assay of 0.868. Also, the Ranking score under setting [2] amounted to 607.829.

Regarding `C[C@H](Cc1cc2c(c(C(N)=O)c1)N(CCCO)CC2)NCCOc1ccccc1OCC(F)(F)F` [Silodosin], the B-score functional assay came out at 1.072. Further, the Ranking score under setting [2] worked out at 510.413.

On to `C[C@H](CCC(=O)O)[C@H]1CC[C@H]2[C@@H]3[C@H](O)C[C@@H]4C[C@H](O)CC[C@]4(C)[C@H]3CC[C@]12C` [Chenodiol], for which the B-score functional assay was -1.277. Under setting [1], this molecule came in with a Ranking score of 40.9878.

Turning to `CSc1ccc2c(c1)N(CCC1CCCCN1C)c1ccccc1S2` (centres unmarked) [Thioridazine hydrochloride], the B-score functional assay came to 0.02. Besides, the Ranking score under setting [1] was 203.814.

With `CC(C)(O/N=C(\C(=O)N[C@@H]1C(=O)N2C(C(=O)[O-])=C(C[n+]3ccccc3)CS[C@H]12)c1csc(N)n1)C(=O)O` [Ceftazidime pentahydrate], the B-score functional assay is listed as -1.028. The Ranking score under setting [2] turned out to be 560.357.

Molecule `[H]/N=C(\N/C(=N/[H])NCCCCCCNC(=N)NC(=N)Nc1ccc(Cl)cc1)Nc1ccc(Cl)cc1` [Chlorhexidine] displayed a B-score functional assay of 0.062. Besides, the Ranking score under setting [1] turned out to be 185.515.

`CN1CCN(c2c(F)cc3c(=O)c(C(=O)O)cn4c3c2SCC4)CC1` [Rufloxacin]: the B-score functional assay is -0.276. In addition, the Ranking score under setting [2] was determined as 471.137.
